Results published in patent publication US7399638B2, “Prediction method for lipidosis” (Takeda Pharmaceutical Company Limited, priority 2003, dated 2008).
Read-outs that look alike come from different tables or passages of the source. Marks after values point to notes of the source that are not given here.

Columns and labels:
Crj: CD(SD)IGS rats [1] = details: rat, in vivo
Protocol: The following 10 kinds of commercially available drugs were examined as the test compounds for a potential of inducing PLsis by histopathological examination and peripheral blood lymphocyte testing.
The following experiments were performed using the prematurely autopsied animals.
The high-dose dosing suspension was diluted about 3 fold and 10 fold with dispersant/solvent to prepare intermediate- and low-dose dosing suspensions. […] [For LD50, the Summary Basis of Approval (FDA) for each drug was referenced to.]
The animals were examined for mortality, general conditions, body weight, food consumption and the like using PM4800 (Mettler) and EB3200D (Shimadzu Corporation).

Crj: CD(SD)IGS rats [2] = test: Urinary PAG/hippuric acid ratio by 1H NMR in rats
Protocol: During the urine pooling, the collecting vessels were kept in an ice-cooled condition. After the urine collection, the urine was centrifuged at 1500×g for 10 minutes, and not less than 1 mL of the supernatant was collected and stored under freezing (below −70° C.) in a microtube in an ultralow-temperature freezer until the measurement. For the negative control group, 24-hour pooled urine was collected under ice cooling; after the urine collection, the urine was stored at −30° C. until the measurement.

[3] = rat urine, 100 mg/kg/day by gavage, 3 days, mean n = 3-4
[4] = rat urine, 300 mg/kg/day by gavage, 3 days, mean n = 3-4
[5] = rat urine, 1000 mg/kg/day by gavage, 3 days, mean n = 3-4
[6] = rat 24-hour pooled urine, 1 mg/kg/day by gavage, 4 days, negative control drug, mean n = 2-4
[7] = rat 24-hour pooled urine, 3 mg/kg/day by gavage, 4 days, negative control drug, mean n = 2-4
[8] = rat 24-hour pooled urine, 30 mg/kg/day by gavage, 4 days, negative control drug, mean n = 2-4
[9] = rat 24-hour pooled urine, 100 mg/kg/day by gavage, 4 days, negative control drug, mean n = 2-4
[10] = rat urine, 25 mg/kg/day by gavage, 3 days, mean n = 3-4
[11] = rat urine, 75 mg/kg/day by gavage, 3 days, mean n = 3-4
[12] = rat urine, 250 mg/kg/day by gavage, 3 days, mean n = 3-4

CC/C(=C(\c1ccccc1)c1ccc(OCCN(C)C)cc1)c1ccccc1 [Tamoxifen, tamoxifen]
Histopathological changes (PLsis): Liver (Crj: CD(SD)IGS rats [1]; 100 mg/kg/day): − | Histopathological changes (PLsis): Lung (Crj: CD(SD)IGS rats [1]; 100 mg/kg/day): + | Histopathological changes (PLsis): Lymph node (Crj: CD(SD)IGS rats [1]; 100 mg/kg/day): + | Histopathological changes (PLsis): Others (Crj: CD(SD)IGS rats [1]; 100 mg/kg/day): − | Histopathological changes (PLsis): Spleen (Crj: CD(SD)IGS rats [1]; 100 mg/kg/day): − | Histopathological changes (PLsis): Liver (Crj: CD(SD)IGS rats [1]; 300 mg/kg/day): + | Histopathological changes (PLsis): Lung (Crj: CD(SD)IGS rats [1]; 300 mg/kg/day): + | Histopathological changes (PLsis): Lymph node (Crj: CD(SD)IGS rats [1]; 300 mg/kg/day): + | Histopathological changes (PLsis): Others (Crj: CD(SD)IGS rats [1]; 300 mg/kg/day): − | Histopathological changes (PLsis): Spleen (Crj: CD(SD)IGS rats [1]; 300 mg/kg/day): − | Histopathological changes (PLsis): Liver (Crj: CD(SD)IGS rats [1]; 1000 mg/kg/day): + | Histopathological changes (PLsis): Lung (Crj: CD(SD)IGS rats [1]; 1000 mg/kg/day): + | Histopathological changes (PLsis): Lymph node (Crj: CD(SD)IGS rats [1]; 1000 mg/kg/day): + | Histopathological changes (PLsis): Others (Crj: CD(SD)IGS rats [1]; 1000 mg/kg/day): − | Histopathological changes (PLsis): Spleen (Crj: CD(SD)IGS rats [1]; 1000 mg/kg/day): − | PAG + hippuric acid/creatinine (Crj: CD(SD)IGS rats [2]; [3]): 1.34 | PAG/creatinine (first term of PAG + hippuric acid) (Crj: CD(SD)IGS rats [2]; [3]): 0.31 | hippuric acid/creatinine (second term of PAG + hippuric acid) (Crj: CD(SD)IGS rats [2]; [3]): 1.02 | PAG + hippuric acid/creatinine (Crj: CD(SD)IGS rats [2]; [4]): 1.16 | PAG/creatinine (first term of PAG + hippuric acid) (Crj: CD(SD)IGS rats [2]; [4]): 0.63 | hippuric acid/creatinine (second term of PAG + hippuric acid) (Crj: CD(SD)IGS rats [2]; [4]): 0.53 | PAG + hippuric acid/creatinine (Crj: CD(SD)IGS rats [2]; [5]): 1.58 | PAG/creatinine (first term of PAG + hippuric acid) (Crj: CD(SD)IGS rats [2]; [5]): 0.91 | hippuric acid/creatinine (second term of PAG + hippuric acid) (Crj: CD(SD)IGS rats [2]; [5]): 0.67

O=C(Nc1c(Cl)cncc1Cl)c1ccc(OC(F)F)c(OCC2CC2)c1 [Roflumilast, roflumilast]
Histopathological changes (PLsis): Liver (Crj: CD(SD)IGS rats [1]; 1 mg/kg/day): − | Histopathological changes (PLsis): Lung (Crj: CD(SD)IGS rats [1]; 1 mg/kg/day): − | Histopathological changes (PLsis): Lymph node (Crj: CD(SD)IGS rats [1]; 1 mg/kg/day): − | Histopathological changes (PLsis): Others (Crj: CD(SD)IGS rats [1]; 1 mg/kg/day): − | Histopathological changes (PLsis): Spleen (Crj: CD(SD)IGS rats [1]; 1 mg/kg/day): − | Histopathological changes (PLsis): Liver (Crj: CD(SD)IGS rats [1]; 3 mg/kg/day): − | Histopathological changes (PLsis): Lung (Crj: CD(SD)IGS rats [1]; 3 mg/kg/day): − | Histopathological changes (PLsis): Lymph node (Crj: CD(SD)IGS rats [1]; 3 mg/kg/day): − | Histopathological changes (PLsis): Others (Crj: CD(SD)IGS rats [1]; 3 mg/kg/day): − | Histopathological changes (PLsis): Spleen (Crj: CD(SD)IGS rats [1]; 3 mg/kg/day): − | PAG + hippuric acid/creatinine (Crj: CD(SD)IGS rats [2]; [6]): 1.39 | PAG/PAG + hippuric acid (Crj: CD(SD)IGS rats [2]; [6]): 10.79% | PAG/creatinine (first term of PAG + hippuric acid) (Crj: CD(SD)IGS rats [2]; [6]): 0.15 | PAG/hippuric acid (Crj: CD(SD)IGS rats [2]; [6]): 12.09% | hippuric acid/creatinine (second term of PAG + hippuric acid) (Crj: CD(SD)IGS rats [2]; [6]): 1.24 | PAG + hippuric acid/creatinine (Crj: CD(SD)IGS rats [2]; [7]): 1.39 | PAG/PAG + hippuric acid (Crj: CD(SD)IGS rats [2]; [7]): 15.11% | PAG/creatinine (first term of PAG + hippuric acid) (Crj: CD(SD)IGS rats [2]; [7]): 0.21 | PAG/hippuric acid (Crj: CD(SD)IGS rats [2]; [7]): 15.41% | hippuric acid/creatinine (second term of PAG + hippuric acid) (Crj: CD(SD)IGS rats [2]; [7]): 1.18

COc1ccc([C@]2(C#N)CC[C@@H](C(=O)O)CC2)cc1OC1CCCC1 [Ariflo]
Histopathological changes (PLsis): Liver (Crj: CD(SD)IGS rats [1]; 30 mg/kg/day): − | Histopathological changes (PLsis): Lung (Crj: CD(SD)IGS rats [1]; 30 mg/kg/day): − | Histopathological changes (PLsis): Lymph node (Crj: CD(SD)IGS rats [1]; 30 mg/kg/day): − | Histopathological changes (PLsis): Others (Crj: CD(SD)IGS rats [1]; 30 mg/kg/day): − | Histopathological changes (PLsis): Spleen (Crj: CD(SD)IGS rats [1]; 30 mg/kg/day): − | Histopathological changes (PLsis): Liver (Crj: CD(SD)IGS rats [1]; 100 mg/kg/day): − | Histopathological changes (PLsis): Lung (Crj: CD(SD)IGS rats [1]; 100 mg/kg/day): − | Histopathological changes (PLsis): Lymph node (Crj: CD(SD)IGS rats [1]; 100 mg/kg/day): − | Histopathological changes (PLsis): Others (Crj: CD(SD)IGS rats [1]; 100 mg/kg/day): − | Histopathological changes (PLsis): Spleen (Crj: CD(SD)IGS rats [1]; 100 mg/kg/day): − | PAG + hippuric acid/creatinine (Crj: CD(SD)IGS rats [2]; [8]): 1.34 | PAG/PAG + hippuric acid (Crj: CD(SD)IGS rats [2]; [8]): 9.70% | PAG/creatinine (first term of PAG + hippuric acid) (Crj: CD(SD)IGS rats [2]; [8]): 0.13 | PAG/hippuric acid (Crj: CD(SD)IGS rats [2]; [8]): 12.16% | PAG + hippuric acid/creatinine (Crj: CD(SD)IGS rats [2]; [9]): 1.14 | PAG/PAG + hippuric acid (Crj: CD(SD)IGS rats [2]; [9]): 14.04% | PAG/creatinine (first term of PAG + hippuric acid) (Crj: CD(SD)IGS rats [2]; [9]): 0.16 | PAG/hippuric acid (Crj: CD(SD)IGS rats [2]; [9]): 13.91% | hippuric acid/creatinine (second term of PAG + hippuric acid) (Crj: CD(SD)IGS rats [2]; [9]): 0.98

COc1ccc(C2CNC(=O)C2)cc1OC1CCCC1 (stereo not drawn) [Rolipram, rolipram]
Histopathological changes (PLsis): Liver (Crj: CD(SD)IGS rats [1]; 30 mg/kg/day): − | Histopathological changes (PLsis): Lung (Crj: CD(SD)IGS rats [1]; 30 mg/kg/day): − | Histopathological changes (PLsis): Lymph node (Crj: CD(SD)IGS rats [1]; 30 mg/kg/day): − | Histopathological changes (PLsis): Others (Crj: CD(SD)IGS rats [1]; 30 mg/kg/day): − | Histopathological changes (PLsis): Spleen (Crj: CD(SD)IGS rats [1]; 30 mg/kg/day): − | Histopathological changes (PLsis): Liver (Crj: CD(SD)IGS rats [1]; 100 mg/kg/day): − | Histopathological changes (PLsis): Lung (Crj: CD(SD)IGS rats [1]; 100 mg/kg/day): − | Histopathological changes (PLsis): Lymph node (Crj: CD(SD)IGS rats [1]; 100 mg/kg/day): − | Histopathological changes (PLsis): Others (Crj: CD(SD)IGS rats [1]; 100 mg/kg/day): − | Histopathological changes (PLsis): Spleen (Crj: CD(SD)IGS rats [1]; 100 mg/kg/day): − | PAG + hippuric acid/creatinine (Crj: CD(SD)IGS rats [2]; [8]): 1.43 | PAG/PAG + hippuric acid (Crj: CD(SD)IGS rats [2]; [8]): 17.48% | PAG/creatinine (first term of PAG + hippuric acid) (Crj: CD(SD)IGS rats [2]; [8]): 0.25 | PAG/hippuric acid (Crj: CD(SD)IGS rats [2]; [8]): 18.22% | hippuric acid/creatinine (second term of PAG + hippuric acid) (Crj: CD(SD)IGS rats [2]; [8]): 1.18 | PAG + hippuric acid/creatinine (Crj: CD(SD)IGS rats [2]; [9]): 1.02 | PAG/PAG + hippuric acid (Crj: CD(SD)IGS rats [2]; [9]): 13.73% | PAG/creatinine (first term of PAG + hippuric acid) (Crj: CD(SD)IGS rats [2]; [9]): 0.14 | PAG/hippuric acid (Crj: CD(SD)IGS rats [2]; [9]): 16.29% | hippuric acid/creatinine (second term of PAG + hippuric acid) (Crj: CD(SD)IGS rats [2]; [9]): 0.88

CCN(CC)CCCC(C)Nc1ccnc2cc(Cl)ccc12 (stereo not drawn) [Chloroquine, chloroquine]
PAG + hippuric acid/creatinine (Crj: CD(SD)IGS rats [2]; [10]): 1.34 | PAG/PAG + hippuric acid (Crj: CD(SD)IGS rats [2]; [10]): 13.25% | PAG/creatinine (first term of PAG + hippuric acid) (Crj: CD(SD)IGS rats [2]; [10]): 0.18 | PAG/hippuric acid (Crj: CD(SD)IGS rats [2]; [10]): 15.42% | PAG + hippuric acid/creatinine (Crj: CD(SD)IGS rats [2]; [11]): 1.23 | PAG/creatinine (first term of PAG + hippuric acid) (Crj: CD(SD)IGS rats [2]; [11]): 0.24 | hippuric acid/creatinine (second term of PAG + hippuric acid) (Crj: CD(SD)IGS rats [2]; [11]): 1.00 | PAG + hippuric acid/creatinine (Crj: CD(SD)IGS rats [2]; [12]): 1.29 | PAG/creatinine (first term of PAG + hippuric acid) (Crj: CD(SD)IGS rats [2]; [12]): 0.52 | hippuric acid/creatinine (second term of PAG + hippuric acid) (Crj: CD(SD)IGS rats [2]; [12]): 0.76

CN(C)CCCN1c2ccccc2CCc2ccccc21 [Imipramine, imipramine]
PAG + hippuric acid/creatinine (Crj: CD(SD)IGS rats [2]; [3]): 1.21 | PAG/creatinine (first term of PAG + hippuric acid) (Crj: CD(SD)IGS rats [2]; [3]): 0.34 | hippuric acid/creatinine (second term of PAG + hippuric acid) (Crj: CD(SD)IGS rats [2]; [3]): 0.87 | PAG + hippuric acid/creatinine (Crj: CD(SD)IGS rats [2]; [4]): 0.71* | PAG/creatinine (first term of PAG + hippuric acid) (Crj: CD(SD)IGS rats [2]; [4]): 0.40 | hippuric acid/creatinine (second term of PAG + hippuric acid) (Crj: CD(SD)IGS rats [2]; [4]): 0.31
